These results are taken from paper PMC10096175, “An In Vitro Antimicrobial, Anticancer and Antioxidant Activity of N–[(2–Arylmethylthio)phenylsulfonyl]cinnamamide Derivatives” (Molecules, 2023).

Values after ≈ are worked out from the molar mass of the structure shown. Where two headings read alike, the source gives them in different places.

The test system of test [1] is quorum sensing system of C. violaceum. Further details: method as in doi:10.1016/j.ibiod.2018.06.003. The note with it: cited from earlier work.
The nature of another test: DPPH assay. The note with it: DPPH radical scavenging; 40 min, room temperature. Here is the method:
The DPPH assay was performed spectrophotometrically. The amount of 30 µL of different concentrations of samples, dissolved in methanol/DMSO (9/1 v/v), was mixed with 170 µL of 0.06 mM DPPH methanolic solution and completed with methanol to a final volume of 300 µL. DPPH methanolic solution with methanol/DMSO (9/1 v/v) was used as a control. After 40 min of incubation at room temperature in the dark, the absorbance was analyzed at λ = 510 nm by a 96-well microplate reader (Epoch, BioTek System, Santa Clara, CA, USA). Ascorbic acid was used as a standard.
DPPH inhibition was calculated by the following equation:DPPH Inhibition (%) = [Acontrol − Asample)/Acontrol] × 100%
(§1) IC50 values of the samples were calculated using program GraFit v. 7.0 (Erithacus Software). The analysis was performed three times, with tree replications in each (n = 9). Statistical analysis was performed with one-way ANOVA with Tuckey’s post-hoc test.

A further test can be described thus: ABTS assay. The note with it: ABTS radical scavenging; 10 min, 30 °C. As for the experimental part: The ABTS assay was performed spectrophotometrically. […] ABTS solution with methanol/DMSO (9/1 v/v) was used as a control. After 10 min of incubation at 30 °C in the dark, the absorbance was analyzed at λ = 750 nm by a 96-well microplate reader (Epoch, BioTek System, Santa Clara, CA, USA). Ascorbic acid was used as a standard.
ABTS inhibition was calculated by the following equation:ABTS Inhibition (%) = [Acontrol − Asample)/Acontrol] × 100%
as §1

The subject of a further test is C. albicans ATCC 10231. The test can be described thus: MIC determination, reference fungal strain (microdilution). The note with it: Candida albicans, ATCC10231; C. albicans ATCC 10231; read-out: MIC. The test is classed as cell-based.
The subject of the next test is HeLa cells. The test can be described thus: MTT assay. The test is classed as cell-based, human. As to conditions: Homo sapiens, HeLa, 24 h, HeLa; MTT, 24 h treatment; read-out: IC50.
The next test concerns SKOV-3 cells. The test can be described thus: MTT assay. The test is classed as cell-based, human. The note with it: Homo sapiens, SK-OV-3; SKOV-3; MTT, 24 h treatment; read-out: IC50.
The subject of the next test is MCF-7 cells. Nature of the test: MTT assay. The test is classed as cell-based, human. As to conditions: Homo sapiens, MCF7; MCF-7; MTT, 24 h treatment; read-out: IC50.

`O=C(O)C=Cc1ccc2c(c1)OCO2` [3,4–(methylenedioxy)cinnamic acid]: the Quorum sensing inhibition entry in test [1] (at 5 mM) is on record as “completely inhibit”.

Regarding `O=C(O)C=Cc1ccc(Cl)cc1` [4–chlorocinnamic acid], the Quorum sensing inhibition result in test [1] (at 5 mM) is “completely inhibit”.

Consider `O=C(O)C=Cc1ccc([N+](=O)[O-])cc1` [4–nitrocinnamic acid], for which the Quorum sensing inhibition entry in test [1] (at 5 mM) was “completely inhibit”.

On to `O=C1O[C@H]([C@@H](O)CO)C(O)=C1O` [Ascorbic acid, ascorbic acid, reference compound], for which the “IC50 DPPH” value in “DPPH assay” worked out at 10780 ± 110 ng/mL (≈ 61.2 µM). Further, in “ABTS assay”, the “IC50 ABTS” value was 18990 ± 30 ng/mL (≈ 108 µM).

In the case of `CC(=O)N1CCN(c2ccc(OCC3COC(Cn4ccnc4)(c4ccc(Cl)cc4Cl)O3)cc2)CC1` (centres unmarked) [Ketoconazole, reference compound], the MIC in the test on C. albicans ATCC 10231 is more than 125000 ng/mL.

Turning to `CC[C@]1(O)C[C@@H]2CN(CCc3c([nH]c4ccccc34)[C@@](C(=O)OC)(c3cc4c(cc3OC)N(C)[C@H]3[C@@](O)(C(=O)OC)[C@H](OC(C)=O)[C@]5(CC)C=CCN6CC[C@]43[C@@H]65)C2)C1` [V. sulphate, Vinblastine sulphate, reference compound], the concentration for half-maximal inhibition (IC50) with HeLa cells amounted to 5 ± 0.4 ng/mL; with SKOV-3 cells it was 8 ± 0.3 ng/mL; in the test on MCF-7 cells it was 7 ± 0.8 ng/mL.

Take `C=CCOC(=O)C=Cc1ccccc1` [allyl cinnamate]: the Quorum sensing inhibition entry in test [1] (at 1 mM) is listed as “completely inhibit”.

Take `NC(=O)C=Cc1ccccc1` [cinnamamide]: the Quorum sensing inhibition result in test [1] (at 5 mM) was “completely inhibit”.

With `O=C(O)/C=C/c1ccccc1` [cinnamic acid], in test [1] (at 5 mM), the Quorum sensing inhibition entry is “completely inhibit”.

Take `OCC=Cc1ccccc1` [cinnamyl alcohol]: the Quorum sensing inhibition entry in test [1] (at 1 mM) was “completely inhibit”.

For `CC(=Cc1ccccc1)C(=O)O` [α–methylcinnamic acid], in test [1] (at 5 mM), the Quorum sensing inhibition entry is listed as “completely inhibit”.
